This passage reports Ki results from US10533010B2, “Substituted indole Mcl-1 inhibitors” (Vanderbilt University, priority 2014, dated 2020).

Some results are limits rather than exact numbers.

The first assay deals with recombinant Mcl-1 (residues 172-327) (Homo sapiens (Human), UniProt Q07820). The assay can be described thus: Fluorescence polarization anisotropy competition assay (FITC-Bak or FITC-Bim BH3 peptide) with Mcl-1. The class given is binding. The note with it: Table 2; Ki bins given in nM; FITC-Bak or FITC-Bim peptide competition; Ki converted from IC50; read-out: Ki for Inhibition of Mcl-1.
Sequence of recombinant Mcl-1 (residues 172-327) (Q07820 172-327): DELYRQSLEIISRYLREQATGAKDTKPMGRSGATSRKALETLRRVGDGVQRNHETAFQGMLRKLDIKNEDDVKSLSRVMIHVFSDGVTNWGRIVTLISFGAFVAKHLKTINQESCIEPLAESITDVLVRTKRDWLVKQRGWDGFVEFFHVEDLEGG
In the case of `Cc1cc(OCCCc2c(C(=O)N3CCN(c4ccc(C(=O)O)cc4)CC3)n(Cc3ccccn3)c3c(-c4c(C)nn(C)c4C)c(Cl)ccc23)cc(C)c1Cl` [I-341, 4-(4-(6-chloro-3-(3-(4-chloro-3,5-dimethylphenoxy)propyl)-1-(pyridin-2-ylmethyl)-7-(1,3,5-trimethyl-1H-pyrazol-4-yl)-1H-indole-2-carbonyl)piperazin-1-yl)benzoic acid], the Ki is less than 50 nM.
As for `Cc1cc(OCCCc2c(C(=O)Nc3cc(NC4CCOCC4)cc(C(=O)O)c3)[nH]c3c(-c4c(C)nn(C)c4C)c(Cl)ccc23)cc(C)c1Cl` [I-209, 3-(6-chloro-3-(3-(4-chloro-3,5-dimethylphenoxy)propyl)-7-(1,3,5-trimethyl-1H-pyrazol-4-yl)-1H-indole-2-carboxamido)-5-((tetrahydro-2H-pyran-4-yl)amino)benzoic acid], the Ki was less than 50 nM.
Turning to `Cc1cc(OCCCc2c3n(c4c(-c5c(C)nn(C)c5C)c(Cl)ccc24)CCCN(c2ccc(C#N)cc2)C3=O)cc(C)c1Cl` [I-356, 4-(8-chloro-11-(3-(4-chloro-3,5-dimethylphenoxy)propyl)-1-oxo-7-(1,3,5-trimethyl-1H-pyrazol-4-yl)-4,5-dihydro-1H-[1,4]diazepino[1,2-a]indol-2(3H)-yl)benzonitrile], the Ki fell in the range of 51 to 100 nM.
The same measure, in the same setting: the result for `Cc1cc(OCCCc2c(C(=O)NCc3ccc(C(=O)NS(C)(=O)=O)o3)[nH]c3ccccc23)cc(C)c1Cl` [I-59, 3-(3-(4-chloro-3,5-dimethylphenoxy)propyl)-N-((5-((methylsulfonyl)carbamoyl)furan-2-yl)methyl)-1H-indole-2-carboxamide] reads 101 to 299 nM; that for `Cc1cc(OCCCc2c3n(c4c(-c5c(C)nn(C)c5C)c(Cl)ccc24)CC(C)CN(Cc2ccc(C(=O)O)cc2)C3=O)cc(C)c1Cl` (stereo not shown) [I-133, 4-((8-chloro-11-(3-(4-chloro-3,5-dimethylphenoxy)propyl)-4-methyl-1-oxo-7-(1,3,5-trimethyl-1H-pyrazol-4-yl)-4,5-dihydro-1H-[1,4]diazepino[1,2-a]indol-2(3H)-yl)methyl)benzoic acid], less than 50 nM.
In the case of `Cc1cc(OCCCc2c(C(=O)NCCC(=O)O)[nH]c3c(-c4c(C)n[nH]c4C)cccc23)cc(C)c1Cl` [I-23, 3-(3-(3-(4-chloro-3,5-dimethylphenoxy)propyl)-7-(3,5-dimethyl-1H-pyrazol-4-yl)-1H-indole-2-carboxamido)propanoic acid], the Ki is less than 50 nM.
Still for that read-out and setting: the result for `Cc1cc(OCCCc2c3n(c4c(-c5c(C)nn(C)c5C)c(Cl)ccc24)CCCN(c2cc(C(=O)O)cc(-c4ccncc4)c2)C3=O)cc(C)c1Cl` [I-231, 3-(8-chloro-11-(3-(4-chloro-3,5-dimethylphenoxy)propyl)-1-oxo-7-(1,3,5-trimethyl-1H-pyrazol-4-yl)-4,5-dihydro-1H-[1,4]diazepino[1,2-a]indol-2(3H)-yl)-5-(pyridin-4-yl)benzoic acid] reads less than 50 nM; that for `Cc1cc(OCCCc2c3n(c4c(-c5c(C)nn(C)c5C)c(Cl)ccc24)CCCN(c2cc(C(=O)O)cc(-c4cccnc4C)c2)C3=O)cc(C)c1Cl` [I-232, 3-(8-chloro-11-(3-(4-chloro-3,5-dimethylphenoxy)propyl)-1-oxo-7-(1,3,5-trimethyl-1H-pyrazol-4-yl)-4,5-dihydro-1H-[1,4]diazepino[1,2-a]indol-2(3H)-yl)-5-(2-methylpyridin-3-yl)benzoic acid], less than 50 nM; that for `COC(=O)c1cccc(CNC(=O)c2[nH]c3c(-c4c(C)n[nH]c4C)cccc3c2CCCOc2cc(C)c(Cl)c(C)c2)c1` [I-25, methyl 3-((3-(3-(4-chloro-3,5-dimethylphenoxy)propyl)-7-(3,5-dimethyl-1H-pyrazol-4-yl)-1H-indole-2-carboxamido)methyl)benzoate], 301 to 500 nM.

Staying with this assay, now noted: Table 2; Ki bins given in μM; FITC-Bak or FITC-Bim peptide competition; Ki converted from IC50; read-out: Ki for Inhibition of Mcl-1.
On to `Cc1cc(OCCCc2c(C(=O)NCCc3c(C)n(C)c4ccccc34)[nH]c3ccccc23)cc(C)c1Cl` [I-44, 3-(3-(4-chloro-3,5-dimethylphenoxy)propyl)-N-(2-(1,2-dimethyl-1H-indol-3-yl)ethyl)-1H-indole-2-carboxamide], for which the Ki was in the range of 1000 to 9990 nM.
